How the values were obtained:
Type in all cases: biochemical
BChE (Equine) = target: T1, BChE (Equine) (Equus caballus, UniProt P81908); experiment: biochemical
T1 construct: purchased Sigma-Aldrich (Steinheim, Germany)
Method: (§1) The assay was performed in two steps.
(§2) All enzymes were obtained from Sigma-Aldrich (Steinheim, Germany). Ellman’s reagent and the substrates were obtained from Fluka (Buchs, Switzerland). The chemicals used to prepare the buffer solution were purchased from Merck (Darmstadt, Germany).
(§3) The enzyme inhibitory activities of the synthesized compounds were investigated by applying Ellman’s method. Enzyme solutions were dissolved in gelatin solution (1%; 2.5 units/mL). […] Then, the reaction was initiated by the addition of Ellman’s reagent 5,5′-Dithiobis(2-nitrobenzoic acid) (DTNB; 20 µL/well, 10 mM) and the substrate (10 µL/well, 75 mM). […] The enzyme solution was processed as a control. All readings were adjusted with blank-reading. All assays were performed in four independent wells. […] Absorbance differences between the two readings were taken, and percentage inhibition rates were calculated according to the following formula: % Inhibition=[(A(C)−A(B))−(A(I)−A(B))]/(A(C)−A(B))×100.
(§4) • Blank (B): the well in which the inhibitor compound and substrate were not added; • Control (C): the well where the inhibitor compound was not added; • A(B): the difference in absorbance reading for the blank; • A(C): the difference in absorbance reading for the control; • A(I): the difference in absorbance reading for the inhibitor compounds.

[1] = target: T2, AChE (Electrophorus electricus) (Electrophorus electricus, UniProt O42275); experiment: AChE inhibition, Ellman's method
T2 construct: purchased Sigma-Aldrich (Steinheim, Germany)
Method: as §1, §2, §3, §4

AChE (Human) = target: T3, AChE (Human) (Homo sapiens, UniProt P22303); experiment: AChE inhibition, Ellman's method
T3 construct: purchased Sigma-Aldrich (Steinheim, Germany)
Method: as §1, §2, §3, §4

BChE (Human) = target: T4, BChE (Human) (Homo sapiens, UniProt P06276); experiment: BChE inhibition, Ellman's method
T4 construct: purchased Sigma-Aldrich (Steinheim, Germany)
Method: as §1, §2, §3, §4

[2] = read-out: BChE (Equine) inhibitory activity (%) ± SD

T2 sequence (O42275 24-633): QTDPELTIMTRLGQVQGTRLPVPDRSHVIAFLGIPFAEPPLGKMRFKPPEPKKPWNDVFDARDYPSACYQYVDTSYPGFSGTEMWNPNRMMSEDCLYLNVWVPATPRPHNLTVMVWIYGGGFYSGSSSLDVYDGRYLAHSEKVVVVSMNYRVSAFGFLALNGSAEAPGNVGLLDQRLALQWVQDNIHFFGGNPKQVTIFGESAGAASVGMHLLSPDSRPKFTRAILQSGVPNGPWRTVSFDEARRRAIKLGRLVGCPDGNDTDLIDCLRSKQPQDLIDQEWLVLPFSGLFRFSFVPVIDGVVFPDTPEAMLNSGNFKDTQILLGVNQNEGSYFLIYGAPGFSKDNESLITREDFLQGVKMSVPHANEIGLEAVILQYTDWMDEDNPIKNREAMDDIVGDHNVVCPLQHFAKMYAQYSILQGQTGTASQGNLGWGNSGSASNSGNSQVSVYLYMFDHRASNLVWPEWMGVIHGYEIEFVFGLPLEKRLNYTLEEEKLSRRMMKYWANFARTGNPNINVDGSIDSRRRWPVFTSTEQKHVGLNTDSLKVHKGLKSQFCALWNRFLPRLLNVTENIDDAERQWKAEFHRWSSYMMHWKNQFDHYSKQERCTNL
T3 sequence (P22303 32-614): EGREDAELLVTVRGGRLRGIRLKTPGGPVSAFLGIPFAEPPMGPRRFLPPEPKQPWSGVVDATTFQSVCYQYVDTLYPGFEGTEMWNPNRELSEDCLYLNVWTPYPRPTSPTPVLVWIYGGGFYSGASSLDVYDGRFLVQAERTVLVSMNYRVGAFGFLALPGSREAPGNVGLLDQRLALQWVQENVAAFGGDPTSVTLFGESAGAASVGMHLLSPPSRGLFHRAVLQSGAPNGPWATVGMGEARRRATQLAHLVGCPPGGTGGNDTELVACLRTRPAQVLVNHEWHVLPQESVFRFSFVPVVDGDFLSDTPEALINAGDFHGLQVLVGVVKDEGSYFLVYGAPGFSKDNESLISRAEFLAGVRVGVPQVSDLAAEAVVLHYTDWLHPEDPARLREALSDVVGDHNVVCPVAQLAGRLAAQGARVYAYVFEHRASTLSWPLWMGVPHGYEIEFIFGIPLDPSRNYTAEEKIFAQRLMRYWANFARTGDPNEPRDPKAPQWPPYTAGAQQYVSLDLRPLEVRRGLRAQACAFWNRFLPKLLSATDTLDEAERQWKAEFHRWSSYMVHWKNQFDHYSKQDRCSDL
T4 sequence (P06276 29-602): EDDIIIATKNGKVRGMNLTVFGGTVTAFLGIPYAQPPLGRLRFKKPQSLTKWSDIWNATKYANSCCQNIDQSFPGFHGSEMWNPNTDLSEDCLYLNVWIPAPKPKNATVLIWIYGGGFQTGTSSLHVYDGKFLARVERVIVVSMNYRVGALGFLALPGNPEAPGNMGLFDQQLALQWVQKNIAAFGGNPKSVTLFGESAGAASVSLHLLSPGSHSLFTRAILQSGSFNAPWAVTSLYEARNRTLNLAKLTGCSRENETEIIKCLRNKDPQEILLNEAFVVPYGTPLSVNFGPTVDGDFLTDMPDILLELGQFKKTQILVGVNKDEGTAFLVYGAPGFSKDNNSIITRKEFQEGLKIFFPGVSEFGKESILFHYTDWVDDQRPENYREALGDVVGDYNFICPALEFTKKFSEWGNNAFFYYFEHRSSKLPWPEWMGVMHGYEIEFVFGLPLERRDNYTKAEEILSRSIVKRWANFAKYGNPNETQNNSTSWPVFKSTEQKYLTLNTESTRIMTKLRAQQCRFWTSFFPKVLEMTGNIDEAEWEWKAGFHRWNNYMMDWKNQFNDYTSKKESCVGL
T1 sequence (P81908 whole entry): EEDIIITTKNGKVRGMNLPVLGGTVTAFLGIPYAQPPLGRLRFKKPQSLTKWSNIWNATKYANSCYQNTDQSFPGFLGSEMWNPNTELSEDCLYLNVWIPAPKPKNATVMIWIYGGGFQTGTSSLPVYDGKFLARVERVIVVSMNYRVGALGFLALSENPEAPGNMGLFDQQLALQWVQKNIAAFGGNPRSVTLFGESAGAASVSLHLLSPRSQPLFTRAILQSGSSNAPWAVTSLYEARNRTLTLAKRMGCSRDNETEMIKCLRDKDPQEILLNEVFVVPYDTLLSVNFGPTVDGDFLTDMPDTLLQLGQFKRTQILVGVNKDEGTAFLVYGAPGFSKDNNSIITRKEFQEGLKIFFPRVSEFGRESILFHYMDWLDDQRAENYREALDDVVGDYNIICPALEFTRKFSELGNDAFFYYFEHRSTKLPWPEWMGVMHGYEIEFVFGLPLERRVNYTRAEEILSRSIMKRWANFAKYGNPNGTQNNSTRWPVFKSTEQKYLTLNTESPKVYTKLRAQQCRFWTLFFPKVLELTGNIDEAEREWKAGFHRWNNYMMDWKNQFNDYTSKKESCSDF

| SMILES | BChE (Equine) inhibitory activity (%) ± SD (BChE (Equine); 10^-3 M) | BChE (Equine) inhibitory activity (%) ± SD (BChE (Equine); 10^-4 M) | AChE (Electrophorus electricus) inhibitory activity (%) ± SD ([1]; 10^-3 M) | AChE (Electrophorus electricus) inhibitory activity (%) ± SD ([1]; 10^-4 M) | AChE (Human) inhibitory activity (%) ± SD (AChE (Human); 10^-3 M) | AChE (Human) inhibitory activity (%) ± SD (AChE (Human); 10^-4 M) | BChE (Human) inhibitory activity (%) ± SD (BChE (Human); 10^-3 M) | BChE (Human) inhibitory activity (%) ± SD (BChE (Human); 10^-4 M) | other results |
| --- | --- | --- | --- | --- | --- | --- | --- | --- | --- |
| O=C(CSC(=S)N1CCN(c2ccc(F)cc2)CC1)Nc1c2ccccc2nc2ccccc12 [Compound 4p, 2-(9-Acridinylamino)-2-oxoethyl 4-(4-fluorophenyl)piperazine-1-carbodithioate] | 93.27±3.07% | 48.65 ± 1.14% | 98.66±2.98% | 48.40 ± 1.18% | 96.90±2.17% | 49.51 ± 1.50% | 92.55±2.51% | 40.71 ± 1.08% | – |
| O=C(CSC(=S)N1CCN(c2ccc([N+](=O)[O-])cc2)CC1)Nc1c2ccccc2nc2ccccc12 [Compound 4d, 2-(9-Acridinylamino)-2-oxoethyl 4-(4-nitrophenyl)piperazine-1-carbodithioate] | 77.75±1.79% | 40.19 ± 0.49% | 55.62±1.14% | 31.64 ± 0.45% | 50.46±1.09% | 34.71 ± 0.77% | 80.56±1.51% | 45.26 ± 0.60% | – |
| O=C(CSC(=S)N1CCOCC1)Nc1c2ccccc2nc2ccccc12 [Compound 4r, 2-(9-Acridinylamino)-2-oxoethyl morpholine-4-carbodithioate] | 91.26±3.42% | 45.30 ± 1.88% | 68.20±1.69% | 37.33 ± 1.03% | 64.93±1.21% | 40.70 ± 1.00% | 94.18±2.62% | 43.29 ± 1.17% | – |
| O=C(CSC(=S)N1CCN(c2ncccn2)CC1)Nc1c2ccccc2nc2ccccc12 [Compound 4j, 2-(9-Acridinylamino)-2-oxoethyl 4-(pyrimidin-2-yl)piperazine-1-carbodithioate] | 92.87±2.84% | 27.86 ± 1.07% | 69.08±1.67% | 2.88 ± 0.18% | 66.71±1.06% | 5.97 ± 0.22% | 90.51±2.18% | 30.77 ± 1.20% | – |
| O=C(CSC(=S)N1CCCCC1)Nc1c2ccccc2nc2ccccc12 [Compound 4s, 2-(9-Acridinylamino)-2-oxoethyl piperidine-1-carbodithioate] | 86.72±3.07% | 38.40 ± 0.74% | 44.51±0.96% | 32.17 ± 1.23% | 49.05±0.88% | 35.20 ± 1.12% | 84.27±2.16% | 34.99 ± 0.63% | – |
| O=C(CSC(=S)N1CCC(Cc2ccccc2)CC1)Nc1c2ccccc2nc2ccccc12 [Compound 4u, 2-(9-Acridinylamino)-2-Oxoethyl 4-Benzylpiperidine-1-Carbodithioate] | 32.20±0.59% | 29.50 ± 0.48% | 69.30±1.28% | 25.88 ± 0.74% | 65.77±1.17% | 30.71 ± 0.52% | 38.33±0.87% | 31.21 ± 0.50% | – |
| CC1CCCCN1C(=S)SCC(=O)Nc1c2ccccc2nc2ccccc12 (stereo not shown) [Compound 4t, 2-(9-Acridinylamino)-2-oxoethyl 2-methylpiperidine-1-carbodithioate] | 96.06±3.61% | * 55.00 ± 1.74% | 81.22±2.77% | 15.94 ± 0.42% | 85.44±1.72% | 14.51 ± 0.44% | 97.28±3.00% | * 54.26 ± 1.27% | IC50 (BChE (Equine)): 1520 ± 72 nM; BChE (Equine) inhibitory activity (%) ± SD (BChE (Equine); 10^-5 M): 49.04±0.68%; BChE (Equine) inhibitory activity (%) ± SD (BChE (Equine); 10^-6 M): 41.33±0.41%; BChE (Equine) inhibitory activity (%) ± SD (BChE (Equine); 10^-7 M): 35.75±0.53%; BChE (Equine) inhibitory activity (%) ± SD (BChE (Equine); 10^-8 M): 30.66±0.59%; BChE (Equine) inhibitory activity (%) ± SD (BChE (Equine); 10^-9 M): 28.50±0.66%; BChE (Human) inhibitory activity (%) ± SD (BChE (Human); 10^-5 M): 48.19±1.08%; BChE (Human) inhibitory activity (%) ± SD (BChE (Human); 10^-6 M): 38.35±0.88%; BChE (Human) inhibitory activity (%) ± SD (BChE (Human); 10^-7 M): 36.47±0.60%; BChE (Human) inhibitory activity (%) ± SD (BChE (Human); 10^-8 M): 32.40±0.57%; BChE (Human) inhibitory activity (%) ± SD (BChE (Human); 10^-9 M): 29.77±0.41%; IC50 (BChE (Human); read-out: BChE (Human) IC50): 1610 ± 62 nM |
| O=C(CSC(=S)N1CCN(C(=O)c2ccco2)CC1)Nc1c2ccccc2nc2ccccc12 [Compound 4q, 2-(9-Acridinylamino)-2-oxoethyl 4-(furan-2-carbonyl)piperazine-1-carbodithioate] | 92.00±3.44% | 39.90 ± 1.36% | 68.60±1.57% | 16.35 ± 0.39% | 70.29±1.18% | 20.28 ± 0.51% | 95.29±2.16% | 42.48 ± 1.22% | – |
| COc1cc2c(cc1OC)C(=O)C(CC1CCN(Cc3ccccc3)CC1)C2 (stereo not shown) [Donepezil, reference compound] | – | – | – | – | – | – | – | – | inhibition at 0.001 µM (BChE (Equine); [2]): 9.23 ± 0.08%; inhibition at 0.01 µM (BChE (Equine); [2]): 15.3 ± 0.61%; inhibition at 0.1 µM (BChE (Equine); [2]): 38.1 ± 0.89%; inhibition at 1 µM (BChE (Equine); [2]): 54.3 ± 1.16%; inhibition at 10 µM (BChE (Equine); [2]): 59.2 ± 1.54%; inhibition at 100 µM (BChE (Equine); [2]): 71.7 ± 2.16%; inhibition at 1000 µM (BChE (Equine); [2]): 82.2 ± 2.91%; inhibition at 1000 µM (BChE (Human); 10^-3 M, read-out: BChE (Human) inhibitory activity (%) ± SD): 85.2 ± 2.01%; inhibition at 100 µM (BChE (Human); 10^-4 M, read-out: BChE (Human) inhibitory activity (%) ± SD): 76.5 ± 2.08%; inhibition at 10 µM (BChE (Human); 10^-5 M, read-out: BChE (Human) inhibitory activity (%) ± SD): 60.2 ± 1.37%; inhibition at 1 µM (BChE (Human); 10^-6 M, read-out: BChE (Human) inhibitory activity (%) ± SD): 52.5 ± 1.05%; inhibition at 0.1 µM (BChE (Human); 10^-7 M, read-out: BChE (Human) inhibitory activity (%) ± SD): 32.7 ± 0.95% |

— paper PMC6222329 (Molecules : A Journal of Synthetic Chemistry and Natural …, 2018)
